Active and inactive are the calls of the source.
Tests used:
[1] = system: CHO-K1; assay: Counterscreen for antagonists of the orexin 1 receptor (OX1R; HCRTR1): Homogeneous time resolved fluorescence (HTRF)-based cell-based dose response assay to identify antagonists of the parental CHO-K1 cell line. [Related pubchem assays (depositor defined):AID434989, AID435008, AID463079, AID485270, AID492963, AID492964, AID492965, AID493232, AID504699, AID504701]; type: functional; settings: Cricetulus griseus;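 note: potency for inhibition of ATP-stimulated IP1 production as antagonists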
[2] = Counterscreen for antagonists of the orexin 1 receptor (OX1R; HCRTR1): Fluorescence-based cell-based high throughput dose response assay to identify antagonists of the parental CHO cell line. [Related pubchem assays (depositor defined):AID434989, AID435008, AID463079, AID485270, AID492963, AID492964, AID492965, AID493232, AID504699, AID504701]; type: functional
[3] = biological target: T1, Orexin/Hypocretin receptor type 1 (Homo sapiens, UniProt O43613); assay: Homogeneous Time Resolved Fluorescence (HTRF)-based cell-based high throughput dose response assay for antagonists of the orexin 1 receptor (OX1R; HCRTR1). [Related pubchem assays (depositor defined):AID434989, AID435008, AID463079, AID485270, AID492963, AID492964, AID492965, AID493232, AID504717, AID504718]; type: functional
[4] = biological target: T1, Orexin/Hypocretin receptor type 1; assay: Fluorescence-based cell-based high throughput dose response assay for antagonists of the orexin 1 receptor (OX1R; HCRTR1). [Related pubchem assays (depositor defined):AID434989, AID435008, AID463079, AID485270, AID492963, AID492964, AID492965, AID493232, AID504717, AID504718]; type: functional
[5] = biological target: T2, Orexin receptor type 2 (Homo sapiens, UniProt O43614); assay: Counterscreen assay for antagonists of the orexin 1 receptor (OX1R; HCRTR1): Fluorescence-based cell-based dose response assay for antagonists of the orexin 2 receptor (OX2R; HCRTR2), run by assay provider.; type: functional
[6] = biological target: T2, Orexin receptor type 2; assay: Counterscreen assay for antagonists of the orexin 1 receptor (OX1R; HCRTR1): Homogeneous Time Resolved Fluorescence (HTRF)-based cell-based dose response assay for antagonists of the orexin 2 receptor (OX2R; HCRTR2), run by assay provider.; type: functional
[7] = biological target: T3, Sentrin-specific protease 8 (Homo sapiens, UniProt Q96LD8); type: functional
T3 sequence (Q96LD8 whole entry): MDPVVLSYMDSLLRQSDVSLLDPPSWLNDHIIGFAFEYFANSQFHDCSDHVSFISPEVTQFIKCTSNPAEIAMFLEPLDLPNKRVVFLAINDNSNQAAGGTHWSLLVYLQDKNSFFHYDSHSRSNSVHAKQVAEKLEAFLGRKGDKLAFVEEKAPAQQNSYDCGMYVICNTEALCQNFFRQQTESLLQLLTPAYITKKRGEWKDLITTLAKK

[8] = biological target: T3, Sentrin-specific protease 8; type: functional; remark: listed apart in the source
[9] = biological target: Cysteine protease ATG4B (Homo sapiens, UniProt Q9Y4P1); type: functional;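 note: Fluorescence-based dose-response confirmation assay measuring inhibition of ATG4B activity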
[10] = biological target: Phospholipase A2 (Homo sapiens, UniProt P04054); type: functional;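 note: confirmatory dose-response counterscreen on phospholipase A2, testing hits that came from an ultra-high-throughput screen for ATG4B inhibitors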
[11] = Luminescence Cell-Based Dose Response Follow up to Identify Inhibitors of Platelet Dense Granule Release. [Related pubchem assays (depositor defined):AID1663, AID1678, AID2398]; type: functional
[12] = biological target: T4, Short transient receptor potential channel 4 (Mus musculus, UniProt Q9QUQ5); assay: SAR Analysis for the identification of selective inhibits of the transient receptor potential cation channel C4 (TRPC4): Automated Electrophysiology_2. [Related pubchem assays (depositor defined):AID2256]; type: functional
T4 sequence (Q9QUQ5 whole entry): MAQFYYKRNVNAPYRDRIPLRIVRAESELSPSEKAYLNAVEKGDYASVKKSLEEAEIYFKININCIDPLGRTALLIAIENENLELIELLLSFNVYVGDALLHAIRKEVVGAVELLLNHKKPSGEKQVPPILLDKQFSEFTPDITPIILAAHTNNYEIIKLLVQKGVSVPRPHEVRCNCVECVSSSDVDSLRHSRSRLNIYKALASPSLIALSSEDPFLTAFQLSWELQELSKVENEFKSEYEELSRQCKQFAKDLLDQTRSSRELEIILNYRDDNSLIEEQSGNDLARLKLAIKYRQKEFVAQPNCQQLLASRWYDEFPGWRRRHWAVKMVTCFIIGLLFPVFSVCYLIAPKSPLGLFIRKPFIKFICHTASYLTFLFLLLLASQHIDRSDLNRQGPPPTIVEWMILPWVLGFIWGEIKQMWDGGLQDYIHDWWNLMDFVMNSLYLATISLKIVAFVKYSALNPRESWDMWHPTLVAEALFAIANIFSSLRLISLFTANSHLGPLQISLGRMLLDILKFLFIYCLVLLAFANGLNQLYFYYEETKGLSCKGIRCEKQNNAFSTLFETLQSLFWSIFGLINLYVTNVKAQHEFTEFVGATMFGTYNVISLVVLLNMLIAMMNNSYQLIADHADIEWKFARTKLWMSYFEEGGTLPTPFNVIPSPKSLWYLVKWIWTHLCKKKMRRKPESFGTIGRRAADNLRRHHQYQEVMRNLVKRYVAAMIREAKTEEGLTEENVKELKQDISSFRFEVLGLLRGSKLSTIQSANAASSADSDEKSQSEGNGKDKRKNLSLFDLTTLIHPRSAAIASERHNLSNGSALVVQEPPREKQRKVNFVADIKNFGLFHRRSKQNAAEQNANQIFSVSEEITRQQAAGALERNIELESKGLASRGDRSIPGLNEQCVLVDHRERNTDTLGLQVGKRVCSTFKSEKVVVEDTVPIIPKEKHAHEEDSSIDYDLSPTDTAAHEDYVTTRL

[13] = biological target: Short transient receptor potential channel 6 (Mus musculus, UniProt Q61143); assay: TRPC6 inhibition potency of TRPC4 inhibitor analogs, dose response, selectivity assay for selective TRPC4 inhibitor project, HEK293 cells, membrane potential dye, IC50 (AID 492987); type: functional, cell-based
[14] = biological target: Phospholipase D1 (Homo sapiens, UniProt Q13393); assay: PLD1 inhibitor potency in cells, dose response (AID 602151); type: functional;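 note: cellular PLD1 assay in Calu-1 cells stimulated with PMA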
[15] = biological target: Phospholipase D2 (Homo sapiens, UniProt O14939); assay: PLD2 inhibitor potency in cells, dose response (AID 602147); type: functional;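 note: cellular assay in HEK293 cells overexpressing GFP-tagged PLD2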
[16] = biological target: Serine/threonine-protein kinase pim-1 (Homo sapiens, UniProt P11309); type: functional
[17] = biological target: Mitogen-activated protein kinase kinase kinase kinase 2 (Homo sapiens, UniProt Q12851); type: functional;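 note: measured as one member of a kinome-wide kinase panel, with MAP4K2 as the panel entry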
[18] = biological target: Hepatocyte growth factor receptor (Homo sapiens, UniProt P08581); type: functional;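 note: kinase panel profiling across the kinome, with MET as the panel member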
[19] = biological target: Cyclin-dependent kinase 8 (Homo sapiens, UniProt P49336); assay: Navigating the Kinome. Panel member name: CDK8; type: functional
[20] = biological target: Dual specificity mitogen-activated protein kinase kinase 2 (Homo sapiens, UniProt P36507); assay: Navigating the Kinome. Panel member name: MAP2K2; type: functional
[21] = biological target: LIM domain kinase 1 (Homo sapiens, UniProt P53667); assay: Navigating the Kinome. Panel member name: LIMK1; type: functional
[22] = biological target: Serine/threonine-protein kinase Chk1 (Homo sapiens, UniProt O14757); type: functional;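 note: measured as one member of a kinome-wide kinase profiling panel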
[23] = biological target: Dual specificity protein kinase CLK4 (Homo sapiens, UniProt Q9HAZ1); type: functional
[24] = biological target: Dual specificity tyrosine-phosphorylation-regulated kinase 1A (Homo sapiens, UniProt Q13627); type: functional;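 note: measured against DYRK1A as one member of a broad kinome profiling panel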
[25] = biological target: Interleukin-1 receptor-associated kinase 4 (Homo sapiens, UniProt Q9NWZ3); type: functional
[26] = biological target: Cyclin-dependent kinase 1 (Homo sapiens, UniProt P06493); type: functional;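 note: Kinome-wide panel profiling, with the target listed as panel member CDC2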
[27] = biological target: Neuropeptides B/W receptor type 1 (Homo sapiens, UniProt P48145); assay: GPR7 antagonist potency, late-stage follow-up, cell-based, fluorescence, dose response, set 5 (AID 588566); type: functional
[28] = biological target: Melanin-concentrating hormone receptor 1 (Homo sapiens, UniProt Q99705); assay: Late-stage fluorescence-based counterscreen for antagonists of the G-protein coupled receptor 7 (GPR7): cell-based dose response assay to identify antagonists of the melanin-concentrating hormone receptor 1 (MCHR1) Set 5.; type: functional
[29] = biological target: ALK tyrosine kinase receptor (Homo sapiens, UniProt Q9UM73); type: functional;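 note: ALK tested as one member of a kinase panel screen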
[30] = biological target: Wee1-like protein kinase (Homo sapiens, UniProt P30291); assay: Navigating the Kinome. Panel member name: WEE1; type: functional
[31] = biological target: Aurora kinase A (Homo sapiens, UniProt O14965); type: functional;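 note: value from the Navigating the Kinome kinase panel profiling, panel entry STK6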
[32] = biological target: Aurora kinase B (Homo sapiens, UniProt Q96GD4); type: functional
[33] = biological target: Cyclin-dependent kinase 19 (Homo sapiens, UniProt Q9BWU1); assay: Navigating the Kinome. Panel member name: CDC2L6; type: functional
[34] = biological target: Benomyl/methotrexate resistance protein (Candida albicans, UniProt P28873); assay: CaMdr1 efflux pump inhibitor potency, dose response, singleplex, Cherry Pick1 hits (AID 588608); type: functional
[35] = biological target: Multidrug resistance protein CDR2 (Candida albicans (strain SC5314 / ATCC MYA-2876) (Yeast), UniProt P78595); assay: CaCDR2 efflux pump inhibitors in yeast, dose response, S. cerevisiae AD1-8u, singleplex, Cherry Pick1 hits (AID 588604); type: functional
[36] = inhibitors of firefly luciferase expression or activity, dose response, H4 neuroglioma cells, luminescence (AID 1990); type: functional, cell-based
[37] = Luminescence Cell-Based Dose Response HTS to Identify Inhibitors of 5'UTR Stem-Loop Driven Prion Protein mRNA Translation in H4 Neuroglioblastoma Cells. [Related pubchem assays: 1827 (Project Summary), 1813 (Primary HTS)]; type: functional
[38] = inhibitors of SNCA 5'UTR-driven reporter translation, confirmation, H4 neuroglioma cells, luminescence (AID 1988); type: functional, cell-based
[39] = system: HEK293; assay: inhibitors of LMP1-driven NF-kB reporter, dose response, cell-based, HEK293, luciferase, cherry-pick (AID 588343); type: functional; settings: Homo sapiens
[40] = biological target: Luciferin 4-monooxygenase (Photuris pensylvanica, UniProt Q27757); assay: firefly luciferase enzyme inhibitors, dose response, counter-screen for HSF-1 reporter inhibitor project, biochemical, Cell Titer Glo, luminescence, cherry-picks (AID 588847)
[41] = inhibitors of HIV Env-driven cell fusion, dose response, cherry-pick (AID 652057); type: functional, cell-based
[42] = off-target signal loss in HeLa-CEM21 co-culture – HeLa F-luc CTL cells, cherry-picked, counter-screen for HIV-1 Env fusion inhibitor project, dose response (AID 652040); type: functional, cell-based;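 note: potency for signal decrease marking cytotoxic or nonspecific inhibition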
[43] = inhibitors of clade B AD8 Env fusion, dose response, cell-based, cherry-pick (AID 652062); type: functional;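 note: luciferase signal from cell-cell fusion driven by HIV-1 clade B AD8 Env; potency is for inhibitors of fusion seen as a drop in luminescence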
[44] = biological target: Mitogen-activated protein kinase 13 (Homo sapiens, UniProt O15264); type: functional

T2 sequence (O43614 whole entry): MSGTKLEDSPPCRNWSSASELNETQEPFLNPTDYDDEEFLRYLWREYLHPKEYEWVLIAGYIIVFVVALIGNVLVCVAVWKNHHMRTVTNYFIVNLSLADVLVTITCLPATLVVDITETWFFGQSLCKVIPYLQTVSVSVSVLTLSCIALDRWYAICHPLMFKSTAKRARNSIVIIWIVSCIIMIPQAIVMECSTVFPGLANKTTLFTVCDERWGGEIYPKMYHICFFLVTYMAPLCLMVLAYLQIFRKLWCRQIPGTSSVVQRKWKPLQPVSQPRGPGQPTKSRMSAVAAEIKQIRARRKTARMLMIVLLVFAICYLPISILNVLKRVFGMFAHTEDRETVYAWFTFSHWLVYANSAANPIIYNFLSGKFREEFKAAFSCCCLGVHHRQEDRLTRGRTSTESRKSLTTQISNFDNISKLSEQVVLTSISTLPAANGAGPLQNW
T1 sequence (O43613 whole entry): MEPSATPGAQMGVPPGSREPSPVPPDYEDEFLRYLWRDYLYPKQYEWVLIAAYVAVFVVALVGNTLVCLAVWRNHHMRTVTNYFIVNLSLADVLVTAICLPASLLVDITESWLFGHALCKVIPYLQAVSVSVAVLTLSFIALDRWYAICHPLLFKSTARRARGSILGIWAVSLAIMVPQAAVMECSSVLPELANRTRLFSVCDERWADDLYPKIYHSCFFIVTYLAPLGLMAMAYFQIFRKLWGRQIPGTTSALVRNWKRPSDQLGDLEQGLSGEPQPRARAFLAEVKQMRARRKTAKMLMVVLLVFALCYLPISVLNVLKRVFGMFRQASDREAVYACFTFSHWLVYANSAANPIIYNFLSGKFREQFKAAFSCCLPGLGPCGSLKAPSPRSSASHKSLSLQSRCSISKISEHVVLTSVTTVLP
Sequence of Aurora kinase B (Q96GD4 whole entry): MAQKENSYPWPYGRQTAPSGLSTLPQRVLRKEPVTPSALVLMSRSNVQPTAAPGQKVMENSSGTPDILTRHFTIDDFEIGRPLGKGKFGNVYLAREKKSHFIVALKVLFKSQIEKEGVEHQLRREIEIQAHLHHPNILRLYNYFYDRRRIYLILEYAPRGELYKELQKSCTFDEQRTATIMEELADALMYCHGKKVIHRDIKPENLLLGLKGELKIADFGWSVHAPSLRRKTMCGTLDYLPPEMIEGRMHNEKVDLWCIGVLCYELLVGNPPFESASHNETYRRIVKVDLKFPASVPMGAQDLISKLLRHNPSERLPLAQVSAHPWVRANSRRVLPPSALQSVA
Sequence of Phospholipase D2 (O14939 whole entry): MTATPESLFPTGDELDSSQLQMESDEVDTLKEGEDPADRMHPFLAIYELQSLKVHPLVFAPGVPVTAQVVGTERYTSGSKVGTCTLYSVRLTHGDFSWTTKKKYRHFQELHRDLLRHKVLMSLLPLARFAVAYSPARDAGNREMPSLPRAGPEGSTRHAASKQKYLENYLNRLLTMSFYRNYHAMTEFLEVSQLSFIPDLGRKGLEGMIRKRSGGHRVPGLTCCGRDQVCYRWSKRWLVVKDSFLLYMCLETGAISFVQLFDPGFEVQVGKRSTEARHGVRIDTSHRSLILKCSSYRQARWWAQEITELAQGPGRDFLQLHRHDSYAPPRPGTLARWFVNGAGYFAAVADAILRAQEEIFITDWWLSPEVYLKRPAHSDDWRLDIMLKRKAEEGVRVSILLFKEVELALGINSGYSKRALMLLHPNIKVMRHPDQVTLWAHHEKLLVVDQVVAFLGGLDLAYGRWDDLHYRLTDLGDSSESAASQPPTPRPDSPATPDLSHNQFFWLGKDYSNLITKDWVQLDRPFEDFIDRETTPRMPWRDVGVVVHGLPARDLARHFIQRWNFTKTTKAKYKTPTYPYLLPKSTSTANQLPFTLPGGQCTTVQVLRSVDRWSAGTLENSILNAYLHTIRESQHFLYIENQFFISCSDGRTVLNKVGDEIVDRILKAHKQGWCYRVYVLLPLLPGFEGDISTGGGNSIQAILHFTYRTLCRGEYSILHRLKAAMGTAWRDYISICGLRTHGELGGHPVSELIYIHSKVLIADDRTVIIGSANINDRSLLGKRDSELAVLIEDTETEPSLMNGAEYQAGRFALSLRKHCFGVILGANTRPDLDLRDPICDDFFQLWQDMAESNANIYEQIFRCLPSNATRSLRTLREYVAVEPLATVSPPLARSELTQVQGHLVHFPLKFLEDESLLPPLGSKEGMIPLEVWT
Sequence of Benomyl/methotrexate resistance protein (P28873 whole entry): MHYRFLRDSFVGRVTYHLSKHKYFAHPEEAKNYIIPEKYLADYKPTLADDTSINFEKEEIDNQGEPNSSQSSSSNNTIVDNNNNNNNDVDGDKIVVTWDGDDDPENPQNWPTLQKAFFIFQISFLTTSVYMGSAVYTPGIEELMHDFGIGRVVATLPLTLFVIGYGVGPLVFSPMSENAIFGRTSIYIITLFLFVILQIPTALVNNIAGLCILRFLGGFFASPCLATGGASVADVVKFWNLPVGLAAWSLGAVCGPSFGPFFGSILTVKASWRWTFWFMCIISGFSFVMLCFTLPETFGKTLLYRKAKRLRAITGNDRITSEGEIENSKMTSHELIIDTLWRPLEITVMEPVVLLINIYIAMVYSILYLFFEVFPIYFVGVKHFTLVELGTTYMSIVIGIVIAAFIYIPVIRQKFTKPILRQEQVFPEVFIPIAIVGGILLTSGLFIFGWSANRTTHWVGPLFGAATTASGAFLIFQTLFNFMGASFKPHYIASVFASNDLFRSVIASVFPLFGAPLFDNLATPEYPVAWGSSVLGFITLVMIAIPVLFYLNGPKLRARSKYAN
Sequence of LIM domain kinase 1 (P53667 whole entry, the tested form may be a part): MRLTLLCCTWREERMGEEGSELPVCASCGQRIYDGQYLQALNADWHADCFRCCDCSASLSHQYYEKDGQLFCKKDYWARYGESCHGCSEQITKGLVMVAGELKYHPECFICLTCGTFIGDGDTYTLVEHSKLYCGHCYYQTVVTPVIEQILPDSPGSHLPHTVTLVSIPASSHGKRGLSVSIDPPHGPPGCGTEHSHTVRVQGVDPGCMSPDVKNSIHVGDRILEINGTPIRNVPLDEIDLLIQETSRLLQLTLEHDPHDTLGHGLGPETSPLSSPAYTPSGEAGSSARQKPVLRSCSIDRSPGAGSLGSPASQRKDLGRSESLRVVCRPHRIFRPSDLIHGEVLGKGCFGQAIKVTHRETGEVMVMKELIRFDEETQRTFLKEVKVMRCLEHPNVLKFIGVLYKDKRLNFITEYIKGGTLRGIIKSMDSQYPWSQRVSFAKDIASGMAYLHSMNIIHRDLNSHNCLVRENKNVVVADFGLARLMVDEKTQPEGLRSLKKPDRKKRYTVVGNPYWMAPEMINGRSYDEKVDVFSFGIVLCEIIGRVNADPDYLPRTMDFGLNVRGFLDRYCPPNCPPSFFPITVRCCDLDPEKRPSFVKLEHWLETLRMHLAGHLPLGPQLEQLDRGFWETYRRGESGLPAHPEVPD
Sequence of Cyclin-dependent kinase 8 (P49336 whole entry): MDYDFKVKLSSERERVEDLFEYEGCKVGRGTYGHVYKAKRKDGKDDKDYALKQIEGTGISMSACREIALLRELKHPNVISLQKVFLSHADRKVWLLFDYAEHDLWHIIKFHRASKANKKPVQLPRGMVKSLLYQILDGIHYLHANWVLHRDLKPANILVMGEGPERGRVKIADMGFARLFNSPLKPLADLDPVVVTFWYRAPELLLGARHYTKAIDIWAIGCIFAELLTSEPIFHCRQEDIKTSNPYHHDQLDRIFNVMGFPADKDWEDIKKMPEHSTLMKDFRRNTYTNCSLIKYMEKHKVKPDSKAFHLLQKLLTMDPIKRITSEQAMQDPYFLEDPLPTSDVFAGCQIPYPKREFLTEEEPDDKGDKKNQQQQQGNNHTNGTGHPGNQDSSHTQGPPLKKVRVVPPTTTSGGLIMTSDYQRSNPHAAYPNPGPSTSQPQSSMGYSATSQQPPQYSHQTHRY
Sequence of Phospholipase D1 (Q13393 whole entry): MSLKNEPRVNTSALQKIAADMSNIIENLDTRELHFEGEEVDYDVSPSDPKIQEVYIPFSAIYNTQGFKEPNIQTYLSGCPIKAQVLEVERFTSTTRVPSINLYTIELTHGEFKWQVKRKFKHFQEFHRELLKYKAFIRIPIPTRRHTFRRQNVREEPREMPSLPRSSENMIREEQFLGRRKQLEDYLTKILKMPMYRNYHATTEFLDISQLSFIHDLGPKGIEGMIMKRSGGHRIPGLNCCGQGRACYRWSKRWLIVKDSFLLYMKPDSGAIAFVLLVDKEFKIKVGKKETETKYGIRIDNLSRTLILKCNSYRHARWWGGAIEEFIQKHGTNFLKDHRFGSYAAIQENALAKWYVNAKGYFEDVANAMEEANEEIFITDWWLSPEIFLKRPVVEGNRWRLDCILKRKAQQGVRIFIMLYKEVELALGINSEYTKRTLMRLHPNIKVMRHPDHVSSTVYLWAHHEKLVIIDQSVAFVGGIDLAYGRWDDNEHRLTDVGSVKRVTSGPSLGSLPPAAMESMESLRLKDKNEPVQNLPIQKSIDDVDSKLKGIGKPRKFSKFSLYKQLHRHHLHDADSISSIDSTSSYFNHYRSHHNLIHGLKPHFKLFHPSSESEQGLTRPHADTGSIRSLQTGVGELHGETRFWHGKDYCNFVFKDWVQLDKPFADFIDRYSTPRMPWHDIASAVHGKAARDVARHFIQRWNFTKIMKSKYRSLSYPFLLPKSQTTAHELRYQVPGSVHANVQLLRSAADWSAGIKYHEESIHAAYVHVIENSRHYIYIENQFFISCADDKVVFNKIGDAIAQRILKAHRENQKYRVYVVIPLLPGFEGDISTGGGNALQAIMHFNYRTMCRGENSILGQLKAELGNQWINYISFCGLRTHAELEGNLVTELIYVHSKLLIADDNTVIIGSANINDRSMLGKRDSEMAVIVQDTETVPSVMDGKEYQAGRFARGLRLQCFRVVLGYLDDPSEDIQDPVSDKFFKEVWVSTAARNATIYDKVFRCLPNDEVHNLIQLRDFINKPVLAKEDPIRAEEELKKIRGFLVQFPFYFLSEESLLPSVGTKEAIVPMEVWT

CCOc1cc(C(=S)N2CCOCC2)cc(Br)c1OS(=O)(=O)c1ccccc1
IC50 [1]: > 66.2 µM (inactive)
IC50 [2]: > 49.8 µM (inactive)
IC50 [3]: 4.56 µM (active)
IC50 [4]: 8.68 µM (active)
IC50 [5]: 6.2 µM (active)
IC50 [6]: > 50 µM (inactive)
IC50 [7]: 8.6 µM (active)
IC50 [8]: 8.96 µM (active)

O=C(O)CCn1cc(/C=C\C(=O)c2ccc(Cl)cc2)c(-c2cccc(Br)c2)n1
IC50 [9]: 15.7 µM (active)
IC50 [10]: 14.9 µM (active)

Cn1c(N)c(C#N)c(-c2ccccc2)c(C#N)c1=O
EC50 [11]: 1.74 µM (active)

CCc1ccc2nc(N3CCCCC3)cc(C)c2c1
IC50 [12]: 3.73 µM (active)
IC50 [13]: 15 µM (active)

CC(C)[C@@H](CN1CCC2(CC1)C(=O)NCN2c1ccccc1)NC(=O)c1cc2cc(F)ccc2[nH]1
IC50 [14]: 0.026 µM (active)
IC50 [15]: 0.48 µM (active)

Oc1ccc(Cl)cc1C1=NNC(c2ccc3c(c2)OCCO3)C1 (centres undefined)
Ki [16]: 2 µM (active)
Ki [17]: 2.51 µM (active)
Ki [18]: 1.26 µM (active)
Ki [19]: 3.16 µM (active)
Ki [20]: 3.16 µM (active)

O=C(O)c1cnc2sccn2c1=O
Ki [21]: 50.1 µM (active)
Ki [22]: 39.8 µM (active)
Ki [23]: 39.8 µM (active)
Ki [24]: 63.1 µM (active)

CS(=O)(=O)Nc1ccccc1-c1ccc2c(c1)Nc1ccccc1NC2=O
Ki [25]: 3.98 µM (active)
Ki [26]: 7.94 µM (active)

CCOc1ccc(Oc2c(Cl)c(C)nn(Cc3cccc4ccccc34)c2=O)cc1
IC50 [27]: 1.88 µM (active)
IC50 [28]: 14.8 µM (inactive)

CCN1CCN(c2ccc(Nc3nccc(Nc4ccc5[nH]ncc5c4)n3)cc2)CC1
Ki [29]: 1 µM (active)
Ki [30]: 0.158 µM (active)

Cc1ccc(F)c(NC(=O)Nc2ccc(-c3cc(CO)c(F)c4[nH]nc(N)c34)cc2)c1
Ki [31]: 0.126 µM (active)
Ki [32]: 0.01 µM (active)
Ki [33]: 2 µM (active)

CCN(CC)c1ccc(/C=C/c2cc(-c3ccccc3)c3ccccc3n2)cc1
EC50 [34]: 3.32 µM (active)
EC50 [35]: 16.1 µM (active)

CCOc1ccc(OCc2cccc(C(=O)N/N=C/c3cccnc3)c2)cc1
EC50 [36]: 9.06 µM (active)
EC50 [37]: 12.8 µM (active)
EC50 [38]: 9.36 µM (active)
AC50 [39]: 1.29 µM (active)
AC50 [40]: 31.9 µM (active)
AC50 [41]: 2.3 µM (active)
AC50 [42]: 1.46 µM (active)
AC50 [43]: 3.31 µM (active)

Cc1cccc(NC(=O)Nc2ccc(-c3ccc4nccnc4c3N)cc2)c1
Ki [44]: > 7.94 µM (inactive)

Reference: ChEMBL document CHEMBL1201862, “PubChem BioAssay data set” (2004)
